Entries after “also recorded” stand apart in the source; their conditions may differ. Marks after values point to notes of the source that are not given here.
Key:
colon tumor incidence = conditions: AOM treated rats, cited from earlier work
ACF formation = conditions: given in the diet, short-term study (ref 10); cited from earlier work
[1] = system: aberrant crypt foci (ACF) induced by azoxymethane (AOM) in the colon; assay: AOM-induced colonic aberrant crypt foci (ACF) bioassay; type: in vivo, Male F344 rats
From the text: The inventors designed a bioassay to examine whether SFN and PEITC can inhibit the formation of aberrant crypt foci (ACF) induced by azoxymethane (AOM) in Fischer rats. ACF has been recognized as an early preneoplastic lesion of colon cancer (7-9) and it is generally observed that agents that inhibit colonic ACF formation would show chemopreventive activity against colon cancer (10). […] The structures of SFN and PEITC and their NAC conjugates are shown below. Two treatment regimens in which SFN and PEITC or their NAC conjugates were administered either after (post-initiation) or before (initiation) AOM treatment were used in the bioassay in order better to define the possible mechanism of action. [drawing 1] Male F344 rats were from Charles River (Kingston, N.Y.). They were fed AIN-76A diet (5% corn oil) and tap water ad libitum. […] PEITC and SFN were purchased from Aldrich Chemical Company (Milwaukee, Wis.) and LTK Labs, Inc. (St. […] The corresponding NAC conjugates were prepared by a published method (13, 26). The purity of the conjugates was greater than 97% as determined by high-performance liquid chromatography. AOM obtained from Ash-Stevens (Detroit, Mich.) was dissolved in saline and administered subcutaneously once a week for two weeks. SFN and PEITC in corn oil and the NAC conjugates in saline (10% DMSO) were given by gavage. Groups 2 to 5 were given 5 μmol SFN or PEITC or 20 μmol of the NAC conjugates, three doses each week for eight weeks, beginning two days after the last dose of AOM. Groups 6 to 9 were treated with three doses of ITC compounds (20 μmol ITC or 50 μmol ITC-NAC) once daily and the last dose was given 2 hr before AOM dosing. This dosing regimen was repeated during the second week of AOM dosing. Groups 10 to 13 were treated with ITCs (5 μmol/dose) or the conjugates (20 μmol/dose) only, three times weekly for eight weeks. Group 14 served as the control group. The bioassay was terminated at week 10 after the second AOM treatment. The colon was processed for microscopic examination and the ACF were recorded using a standard procedure described previously (14). […] For statistical analysis, means were compared among the groups using one-way analysis of variance (ANOVA) followed by Fisher's protected t-test.

[2] = dog, in vivo; cited from earlier work
[3] = molecular target: N,N-dimethylnitrosamine (NDMA) demethylase (CYP2E1) (Rattus norvegicus, UniProt P05182); conditions: rat liver microsomes; previously shown (ref 26); cited from earlier work
Sequence of N,N-dimethylnitrosamine (NDMA) demethylase (CYP2E1) (P05182 whole entry): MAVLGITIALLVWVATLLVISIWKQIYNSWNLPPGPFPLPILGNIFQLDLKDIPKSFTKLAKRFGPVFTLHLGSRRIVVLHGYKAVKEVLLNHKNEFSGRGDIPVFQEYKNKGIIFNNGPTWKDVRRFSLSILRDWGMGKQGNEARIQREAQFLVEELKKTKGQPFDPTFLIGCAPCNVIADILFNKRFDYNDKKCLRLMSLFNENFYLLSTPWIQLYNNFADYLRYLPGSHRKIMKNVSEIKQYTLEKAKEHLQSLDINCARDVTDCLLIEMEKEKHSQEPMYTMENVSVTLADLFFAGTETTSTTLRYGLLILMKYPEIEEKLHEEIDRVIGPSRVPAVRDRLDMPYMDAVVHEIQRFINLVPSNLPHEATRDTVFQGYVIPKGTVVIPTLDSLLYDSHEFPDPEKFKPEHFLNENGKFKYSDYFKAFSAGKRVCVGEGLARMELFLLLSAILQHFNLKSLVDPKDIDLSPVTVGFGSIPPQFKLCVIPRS

[4] = Toxicity observations (body weight, gastrointestinal symptoms) in the ACF bioassay
esophagus tumorigenesis = conditions: rats; at the dose level studied (refs 29, 30); cited from earlier work
lung tumorigenesis = conditions: previously reported; cited from earlier work
colon tumorigenesis = conditions: rats; at the dose level studied (refs 29, 30); cited from earlier work
[5] = initiation (pretreatment): 20 μmol ITC or 50 μmol ITC-NAC before AOM, negative = enhancement
[6] = initiation (pretreatment): 20 μmol ITC or 50 μmol ITC-NAC by gavage before AOM, AOM alone (Group 1) 52
[7] = initiation (pretreatment): 20 μmol ITC or 50 μmol ITC-NAC by gavage before AOM, AOM alone (Group 1) 153
[8] = post-initiation: 5 μmol SFN or PEITC or 20 μmol NAC conjugate by gavage, three doses weekly for eight weeks after AOM, AOM alone (Group 1) 52
[9] = post-initiation: 5 μmol SFN or PEITC or 20 μmol NAC conjugate by gavage, three doses weekly for eight weeks after AOM, AOM alone (Group 1) 153
[10] = post-initiation: 5 μmol SFN or PEITC or 20 μmol NAC conjugate, three doses weekly for eight weeks after AOM
[11] = ITC compound only, no AOM: 5 μmol/dose ITC or 20 μmol/dose conjugate, three times weekly for eight weeks
[12] = initiation: ITC compound by gavage before AOM, 20 μmol ITC or 50 μmol ITC-NAC, three doses once daily, last 2 hr before AOM, repeated in second week
[13] = post-initiation: ITC compound by gavage after AOM, 5 μmol SFN or PEITC or 20 μmol NAC conjugate, three doses each week for eight weeks

Row | Molecule | Activity towards ACF formation (ACF formation) | Percent of inhibition compared to Group 1, Total aberrant crypt foci [1, 5] | Percent of inhibition compared to Group 1, aberrant crypt foci >4 Crypts [1, 5] | Number of aberrant crypt foci >4 Crypts [1, 6] | Number of aberrant crypt foci Total [1, 7] | Number of aberrant crypt foci >4 Crypts [1, 8] | Number of aberrant crypt foci Total [1, 9] | Percent of inhibition compared to Group 1, Total aberrant crypt foci [1, 10] | Percent of inhibition compared to Group 1, aberrant crypt foci >4 Crypts [1, 10] | Inhibition of NDMA demethylase (CYP2E1) [3] | Number of aberrant crypt foci >4 Crypts [1, 11] | Number of aberrant crypt foci Total [1, 11] | Average Body Weight at Termination [4, 11] | Average Body Weight at Termination [4, 12] | Average Body Weight at Termination [4, 13] | other results
1 | S=C=NCc1ccccc1 [BITC, benzyl isothiocyanate] | inactive; also recorded: slightly induce ACF formation |  |  |  |  |  |  |  |  |  |  |  |  |  |  | Effect on colon tumor incidence, initiation phase (colon tumor incidence; initiation phase (ref 34)): inhibit; Effect on colon tumor incidence, post-initiation phase (colon tumor incidence; post-initiation phase (ref 34)): not during the post-initiation phase
2 | S=C=NCCc1ccccc1 [PEITC, phenethyl isothiocyanate] | inactive | (25)^c % | (33)^f % | 35 | 115 | 27 | 100 | (35)^d % | (48)^c % | inhibitors |  |  |  |  |  | Dose at which dose related weight loss became statistically significant [2]: 8 mg/kg; Dose at which signs of irritation of the mucosa of the urinary bladder were reported [2]: ≥ 4 mg/kg/day; Dose levels at which diarrhea and vomiting, with gastrointestinal irritation, occurred sporadically [2]: ≥ 2 mg/kg
3 | CC(=O)N[C@@H](CSC(=S)NCCc1ccccc1)C(=O)O [PEITC-NAC, N-acetylcysteine conjugate of PEITC] |  | (−29)^e % | (−42)^c % | 74 | 198 | 38 | 113 | (26)^e % | (27)^f % | inhibitors | 0 | 0 | 301 | 303 | 313 | 
4 | C[S+]([O-])CCCCN=C=S (centres unmarked) [SFN, sulforaphane] |  | (29)^c % | (33)^f % | 35 | 109 | 30 | 103 | (33)^d % | (42)^b,c % |  | 0 | 0 | 309 | 310 | 301 | 
5 | S=C=NCCCCCCc1ccccc1 [phenylhexyl ITC] |  |  |  |  |  |  |  |  |  |  |  |  |  |  |  | Effect on esophagus tumorigenesis (esophagus tumorigenesis): enhanced; Effect on lung tumorigenesis (lung tumorigenesis): potent inhibitor; Effect on colon tumorigenesis (colon tumorigenesis): enhanced
6 | N-acetylcysteine conjugate of SFA [SFN-NAC] |  | (22)^c % | 15% | 44 | 120 | 31 | 116 | (24)^c % | (40)^c % |  | 0 | 0 | 312 | 304 | 297 | 

From patent US6433011B1, “Method for inhibiting formation of aberrant crypt foci in the colon of a mammal” (American Health Foundation, priority 2000, dated 2002)
